Source: PubChem BioAssay (NCI)
“And” between values parts separate entries of the source, which are not always exact repeats. Identical values can stand only once.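 Growth conditions: 96-well plates. Treatment: test compound, 48 hours, 5 concentrations. Analysis: linear interpolation between bracketing concentrations; unreached endpoints set to highest concentration. At the GI50, growth is halved. TGI is the concentration that stops growth completely.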

Legend:
Experiment in all cases: growth of human tumour cells (NCI), 48 h
[1] = test system: 786-0 renal
[2] = test system: SNB-19 CNS
[3] = test system: K-562 leukemia
[4] = test system: A549 NSCLC
[5] = test system: COLO 205 colon
[6] = test system: UACC-257 melanoma
[7] = test system: CCRF-CEM leukemia
[8] = test system: HS 578T breast
[9] = test system: BT-549 breast
[10] = test system: T-47D breast

Compound | TGI [1] [µM] | TGI [2] | TGI [3] [µM] | TGI [4] | TGI [5] | TGI [6] | TGI [7] [µM] | GI50 [1] | GI50 [8] [µM] | TGI [8] [µM] | GI50 [3] [µM] | GI50 [6] | GI50 [4] | GI50 [5] [µM] | GI50 [9] [µM] | TGI [9] [µM] | GI50 [7] [µM] | GI50 [2] | GI50 [10] [µM] | TGI [10] [µM]
Cc1cc(C)c2c(c1)Nc1ccccc1P2c1ccccc1 (stereo not given) | > 100 | 83.9 µM | > 100 | > 100 µM | > 100 µM |  |  |  |  |  |  |  |  |  |  |  |  |  |  | 
O=c1c(Sc2c(O)c3ccccc3c3ccccc3c2=O)c(O)c2ccccc2c2ccccc12 | > 100 | > 100 µM | > 100 | > 100 µM | > 100 µM | > 100 µM | 56.6 |  |  |  |  |  |  |  |  |  |  |  |  | 
CS(=O)(=O)OCCn1cnc2nc(NC(=O)c3ccccc3)[nH]c(=O)c21 | > 100 | > 100 µM | > 100 | > 100 µM | > 100 µM | > 100 µM | > 100 |  |  |  |  |  |  |  |  |  |  |  |  | 
COc1ccc(-c2cnnn2-c2cc(OC)c3c(c2)OCO3)cc1 | > 36.6 | > 100 µM | > 100 | > 100 µM | 0.52 µM | > 100 µM | > 100 | 0.544 µM | 0.186 | > 100 | 0.0417 | 35.4 µM | 0.107 µM | 0.0578 | 0.101 | 28.6 | 0.148 |  |  | 
O=C1OC(CC(=O)c2ccc(Cl)cc2Cl)C(Cl)=C1Cl (stereo not given) | 52.2 | > 76.6 µM | > 76.7 | > 100 µM | 52.6 µM | > 100 µM | > 72.7 |  |  |  |  |  |  |  |  |  |  |  |  | 
Cc1ccc(NC(=O)c2cc3ccccc3c(N=Nc3ccccc3O)c2O)c(C)c1 | 11.8 | 6.61 µM | > 100 | 12.7 µM | 11.5 µM | 20 µM | 4.75 |  |  | 8.29 |  |  |  |  |  |  |  |  |  | 
CCOC(=O)C1=C(NNC(=O)Cc2ccccc2)CSC1=Nc1ccccc1 | > 100 | > 100 µM | > 100 | > 100 µM | > 100 µM | > 100 µM | > 100 |  |  |  |  |  |  |  |  |  |  |  |  | 
CCCCCCCCC(=O)N(C)C1C2CN3CCC(O2)C13 (stereo not given) | > 100 | > 100 µM | > 100 | > 100 µM | > 100 µM | > 100 µM | > 100 |  |  |  |  |  |  |  |  |  |  |  |  | 
O=c1[nH]nc2ccccc2c1Cl | 28.4 | 30.5 µM | 24.7 | 91.5 µM | 23.4 µM | 29.7 µM | 34.9 |  |  |  |  |  |  |  |  |  |  |  |  | 
C=C1C(=O)OC2C1CC[C@H](C)C13OC(=O)CC1[C@@]23C (stereo not given in full) | > 100 | > 100 µM | > 100 | > 100 µM | > 100 µM | > 100 µM | > 100 |  |  |  |  |  |  |  |  |  |  |  |  | 
Nc1c(Br)c(=O)[nH]c(=O)n1COCCO | > 100 | > 100 µM | > 100 | > 100 µM | > 100 µM | > 100 µM | > 100 |  |  |  |  |  |  |  |  |  |  |  |  | 
CC(C)(O)C1CCC(Nc2ccc3ncc(-c4cccc(C(F)(F)F)c4)n3n2)CC1 (stereo not given) | 4.64 | 21.8 µM | 11.9 | 13.2 µM | 21.5 µM |  | 7.89 | 1.94 µM | 1.59 | 4.67 | 2.27 |  | 3.1 µM | 2.62 |  |  | 0.946 | 4.36 µM | 1.5 | 5.13
CCCCCCCCCCC(O)[C@H]1CCC(C2CC[C@H]([C@H](O)CCCCCCCCCCC(O)CC3=CC(C)OC3=O)O2)O1 (stereo not given in full) | 7.1 | 6.96 µM and 32.1 µM | 4.55 | > 100 µM | 2.84 µM and 5.12 µM | 4.83 µM and 5.13 µM | 5.37 | 2.68 µM |  | 3.5 | < 0.01 |  | 2.96 µM | 2.17 |  |  |  | 2.05 µM |  | 
COc1ccc(C2=NN(C(=O)COc3ccc(Cl)cc3)C(O)(c3ccc(Cl)cc3)C2)cc1 (stereo not given) | > 100 | > 100 µM | > 100 | > 100 µM | > 100 µM | > 100 µM |  |  |  |  |  |  |  |  |  |  |  |  |  | 
NNC(=O)CCC(=O)Nc1cc(Cl)c(Cl)cc1Cl | > 100 | > 100 µM | > 100 | > 100 µM | > 100 µM | > 100 µM | > 100 |  |  |  |  |  |  |  |  |  |  |  |  | 
NC(=NC1CCCCCCC1)c1ccc(N2CCN(c3ccc(C(N)=NC4CCCCCCC4)cc3)CC2)cc1 | > 100 | 27.6 µM | > 100 | > 100 µM | 39.3 µM |  | > 100 | 18.9 µM |  |  | 35.4 |  | 4.25 µM | 13.3 |  |  | 89.8 | 13.5 µM | 25.8 | > 100
CC(=O)NCCSC(=O)c1ccccc1 | 0.425 | 15.2 µM |  | 2.06 µM | 0.516 µM | 0.419 µM | 0.49 |  |  | 5.52 |  |  |  |  |  | 3.75 |  |  |  | 

Compound | TGI [1] [µM] | TGI [2] | TGI [3] [µM] | TGI [4] | TGI [5] | TGI [6] | TGI [7] [µM] | GI50 [1] | GI50 [8] [µM] | TGI [8] [µM] | GI50 [3] [µM] | GI50 [6] | GI50 [4] | GI50 [5] [µM] | GI50 [9] [µM] | TGI [9] [µM] | GI50 [7] [µM] | GI50 [2] | GI50 [10] [µM] | TGI [10] [µM]
O=c1c2cc(Br)ccc2nc(-c2ccccc2Cl)n1NCC1(O)OCC(O)C(O)C1O (stereo not given) | > 100 | > 100 µM | > 100 | > 100 µM | > 100 µM | > 100 µM | > 100 |  |  |  |  |  |  |  |  |  |  |  |  | 
CC1CC(c2cccc3c2OCO3)=Nc2ccccc2S1 (stereo not given) | > 100 | > 100 µM | > 100 | > 100 µM | > 100 µM | > 100 µM | > 100 |  |  |  |  |  |  |  |  |  |  |  |  | 
CC1=C(C(=O)Nc2cccc(Cl)c2)C(c2ccc([N+](=O)[O-])cc2)C(C(=O)Nc2cccc(Cl)c2)=C(C)N1 | 69.6 | > 100 µM | > 100 | > 100 µM | > 100 µM | 38.2 µM | > 100 |  |  |  |  |  |  |  |  |  |  |  |  | 
O=C(/C=C/c1ccc(Cl)c(Cl)c1)c1ccc(F)cc1 | 28.9 | 32.7 µM | 18.7 | > 100 µM | 52 µM | 58 µM | 20.5 |  |  |  |  |  |  |  |  |  |  |  |  | 
C/C([O-])=C1\Cc2ccccc2C1=O.C/C([O-])=C1\Cc2ccccc2C1=O.CC[O-].CC[O-].[Ti+4] | 77.6 | 38.5 µM | > 78.6 | > 100 µM | 67.4 µM | > 100 µM | > 70.2 | 20.8 µM | 11.7 | 47.2 | 20.3 | 38.6 µM | 28.5 µM | 27.4 |  |  | 13.9 | 17.4 µM | 15.5 | 92.4
COCC1N=C(c2cc(OC)c(OC)c(OC)c2-c2cc3c(cc2C2OCCCO2)OCO3)O[C@H]1c1ccccc1 (stereo not given in full) | > 100 | > 100 µM | > 100 | > 100 µM |  | > 100 µM | > 100 |  |  |  |  |  |  |  |  |  |  |  |  | 
CC(/C(=N/NC(=O)C(N)=O)c1c(Cl)ccc(Cl)c1O)C1(O)C(=O)Nc2ccccc21 (stereo not given) | > 100 | > 100 µM | > 100 | > 100 µM | 49.1 µM | > 100 µM | 75.8 |  |  |  |  |  |  |  |  |  |  |  |  | 
O=c1c2cccc3cccc(c4oc5c6cccc7cccc(c(=O)c5c14)c76)c32 | 15.8 | 18.6 µM |  | 25.4 µM | 15.6 µM | 30 µM | 22.1 |  |  |  |  |  |  |  |  |  |  |  |  | 
Fc1cccc2cc3ccc4cccc5ccc(c12)c3c45 | > 100 | > 100 µM | > 100 | > 100 µM | > 100 µM | > 100 µM | > 100 |  |  |  |  |  |  |  |  |  |  |  |  | 
CC(=O)Nc1ccc(/C=N\N2C(=O)c3ccccc3C2=O)cc1 | > 100 | > 100 µM | > 100 | > 100 µM |  | > 100 µM | > 100 |  |  |  |  |  |  |  |  |  |  |  |  | 
COC(C(=O)C(O)C(C)O)C1Cc2cc3cc(OC4CC(OC(C)=O)C(OC5CC(O)C(OC)C(C)O5)C(C)O4)cc(O)c3c(O)c2C(=O)C1OC1CC(OC2CC(OC3CC(C)(O)C(OC(=O)C(C)C)C(C)O3)C(O)C(C)O2)C(O)C(C)O1 (stereo not given) | 0.826 | 53.9 µM and > 100 µM |  | 12.3 µM and 11.1 µM |  | 0.0977 µM and 0.0249 µM and < 0.0492 µM |  | 0.0763 µM and 0.0168 µM |  | 0.175 |  | 0.00348 µM and < 0.0155 µM | 0.0328 µM and 0.00452 µM |  |  | 0.0444 |  | 0.0897 µM and 0.01 µM |  | 
Nc1ccn(CCO)c(=O)n1 | > 100 |  | > 100 | > 100 µM | > 100 µM | > 100 µM | > 100 |  |  |  |  |  |  |  |  |  |  |  |  | 
[C-]#[O+].[C-]#[O+].[C-]#[O+].[C-]#[O+].[Ir].[Ir].[O-]c1ccc2ccccc2c1C=Nc1ccc(N=Cc2c([O-])ccc3ccccc23)cc1 | > 100 | > 100 µM | > 100 | > 100 µM | > 100 µM | > 100 µM | > 100 | 46.3 µM |  |  | 40.1 | > 100 µM | > 100 µM | > 100 |  |  | 66 | 63.6 µM |  | 
O=C(O)CCSCCCN1C(=O)c2ccccc2C1=O | > 100 | > 100 µM | > 100 | > 100 µM | > 100 µM | > 100 µM |  |  |  |  |  |  |  |  |  |  |  |  |  | 
Cc1nn(-c2ccccc2)c2c1CC(=O)Nc1ccccc1-2 | > 100 |  | 0.721 | > 100 µM | 4.84 µM and 1.99 µM | > 100 µM |  | 0.57 µM |  |  | 0.044 | 0.273 µM | 0.764 µM | 0.318 |  |  | 0.112 |  |  | 
O=C1C=C[C@@]23C[C@@H](Nc4c(O)c5c6c(c42)=NCCC=6C=N5)SC3=C1 | 14.6 | 30.6 µM | > 21.9 | 24.4 µM | 2.92 µM | 3.04 µM | > 27 | 4.34 µM | 3.75 | 19.8 | 2.66 | 1.67 µM | 8.62 µM |  |  |  |  |  | 2.96 | 7.47
